Results on 24 compounds are retold here after ChEMBL document CHEMBL1201862, “PubChem BioAssay data set” (2004).

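Growth conditions: 96-well plates. Treatment: test compound, 48 hours, 5 concentrations. Analysis: linear interpolation between bracketing concentrations; unreached endpoints set to highest concentration. GI50 = concentration required for 50% inhibition of growth.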 The source made the active and inactive calls. Rule as the data show it: active = GI50 up to about 1.1 µM and inactive = higher. Some results are limits rather than exact numbers.

Some test systems named below: M19-MEL; HOP-18; KM-20L2; RXF 631; DMS-114; Hs-578T; T47D; SNB-78; XF498.
Holding throughout (experiment): NCI tumour cell line growth inhibition, 48 h

In the case of `CCCCC(C)C(OC(=O)CC(CC(=O)O)C(=O)O)C(CC(C)CC(O)CCCCC(O)CC(O)C(C)N)OC(=O)CC(CC(=O)O)C(=O)O` (stereo not drawn), the GI50 in the assay with M19-MEL, in the assay with HOP-18, in the assay with KM-20L2 and in the assay with RXF 631 was > 100 µM (inactive) throughout.
`O=C1CC(=O)N(CCc2ccccc2)S(=O)(=O)N1CCc1ccccc1`: the GI50 was 32.4 µM (inactive) in the assay with M19-MEL, 65.2 µM (inactive) in the assay with HOP-18 and 21.4 µM (inactive) in the assay with DMS-114.
For the compound `C=CCNc1nc2c(s1)C(=O)c1ccccc1C2=O`, the GI50 with M19-MEL was 1.76 µM (inactive); with Hs-578T, 32.1 µM (inactive); with T47D, 14.4 µM (inactive); in the assay on HOP-18 it was 11 µM (inactive); in the assay on SNB-78 it was 24.4 µM (inactive); in the assay on KM-20L2 it was 19.1 µM (inactive). Moreover, the GI50 was 1.77 µM (inactive) in the assay on DMS-114 and 20.4 µM (inactive) with XF498.
For `O=C1CNC(=O)c2[nH]cnc2N1`, the GI50 with M19-MEL was > 100 µM (inactive); with HOP-18, > 100 µM (inactive); in the assay on SNB-78, > 100 µM (inactive); with DMS-114 it was > 100 µM (inactive); in the assay with RXF 631 it was 39.9 µM (inactive); with XF498 it was 49.3 µM (inactive).
As to `O=C(CC1(O)C(=O)Nc2c(Cl)ccc(Cl)c21)c1ccc2ccccc2c1` (stereo not drawn), the GI50 in the assay on M19-MEL was 2.65 µM (inactive); in the assay on HOP-18 it was 12.9 µM (inactive); in the assay on SNB-78, 14.5 µM (inactive); with KM-20L2, 7.08 µM (inactive); in the assay on DMS-114 it was 5.78 µM (inactive); in the assay on XF498, 12.6 µM (inactive).
Turning to `NNC(=O)/C(=C/c1ccc(Cl)cc1Cl)NC(=O)c1ccccc1`, the GI50 in the assay on M19-MEL, in the assay on HOP-18, with SNB-78, in the assay on DMS-114 and with XF498 was > 100 µM (inactive) each time.
Take `CSCCC(C(=O)O)N(CC1(O)OCC(O)C(O)C1O)N=O` (stereo not drawn): the GI50 with M19-MEL, in the assay on SNB-78, in the assay on KM-20L2, in the assay on DMS-114, with RXF 631 and in the assay on XF498 was > 100 µM (inactive) each time.
Take `CN1C(c2ccccc2)CS(=O)(=O)CS1(=O)=O` (stereo not drawn): the GI50 with M19-MEL, in the assay with HOP-18, in the assay on SNB-78, in the assay with KM-20L2, in the assay with DMS-114 and in the assay on RXF 631 was > 100 µM (inactive) each time. In the assay on XF498, the GI50 was > 100 µM (inactive).
In the case of `COc1cc2c[n+](C)c3c4ccccc4ccc3c2cc1OC.COc1cc2cnc3c4ccccc4ccc3c2cc1OC`, the GI50 with M19-MEL was 3.85 µM (inactive); in the assay with Hs-578T, 2.31 µM (inactive); with T47D, 3.14 µM (inactive); with HOP-18, 23.3 µM (inactive); with KM-20L2, 8.81 µM (inactive); with DMS-114, 2.31 µM (inactive). The GI50 is 23 µM (inactive) with RXF 631 and 5.69 µM (inactive) in the assay on XF498.
With `CCN(CC)CCCNc1nccc2c(C)c3c(cc12)c1cnccc1n3C`, the GI50 with M19-MEL was 0.48 µM (active); in the assay with HOP-18 it was < 0.01 µM (active); in the assay on SNB-78 it was 0.807 µM (active); in the assay with KM-20L2, 0.0682 µM (active); with DMS-114 it was 0.0501 µM (active); in the assay with XF498, 0.16 µM (active).
For the compound `Nc1c(-c2ccc(-c3c(N)[n+]([O-])c4ccccc4[n+]3[O-])cc2)[n+]([O-])c2ccccc2[n+]1[O-]`, the GI50 with M19-MEL was 11.3 µM (inactive); in the assay with HOP-18, 7.67 µM (inactive); in the assay on SNB-78, 8.39 µM (inactive); in the assay with KM-20L2, > 10 µM (inactive); in the assay on DMS-114, 3.4 µM (inactive); in the assay with XF498, 11.5 µM (inactive).
In the case of `O=c1ncccn1[C@@H]1O[C@H](CO)[C@H](O)C1O` (stereo partly drawn), the GI50 is > 100 µM (inactive) with M19-MEL; > 100 µM (inactive) in the assay with HOP-18; > 99.5 µM (inactive) in the assay with SNB-78; > 78 µM (inactive) in the assay with KM-20L2; > 100 µM (inactive) with DMS-114; > 100 µM (inactive) in the assay on XF498.
`CC(=O)NC(CCCCNC(=O)N(C)N=O)C(=O)NCc1ccccc1` (stereo not drawn): the GI50 with M19-MEL, with SNB-78, in the assay on KM-20L2, in the assay on DMS-114, in the assay with RXF 631 and in the assay on XF498 was > 100 µM (inactive) throughout.
On to `FC(F)(F)c1ccc2nc(Nc3ccc(Cl)c(Cl)c3)c(-c3ccccc3)nc2c1`, for which the GI50 is 48.5 µM (inactive) in the assay with M19-MEL; > 100 µM (inactive) in the assay with HOP-18; 27.4 µM (inactive) with SNB-78; 55.7 µM (inactive) in the assay on KM-20L2; 31.2 µM (inactive) in the assay on XF498.
Consider `CN1C(=O)CC(c2cccc(C3CC(=O)N(C)C3=O)n2)C1=O` (stereo not drawn), for which the GI50 in the assay on M19-MEL, in the assay on HOP-18, in the assay on SNB-78, in the assay on KM-20L2 and with DMS-114 was > 100 µM (inactive) throughout.
With `[O-][Cl+3]([O-])([O-])[O-].c1ccc(-c2csc3c4ccccc4c4ccccc4[n+]23)cc1`, the GI50 in the assay with M19-MEL is 1.61 µM (inactive); in the assay with HOP-18, 14.3 µM (inactive); in the assay with SNB-78, 2.08 µM (inactive); with KM-20L2 it was 5.53 µM (inactive); with DMS-114, 0.394 µM (active); in the assay with XF498, 1.79 µM (inactive).
Turning to `COC(=O)C(Cc1nc2ccc(Cl)cc2nc1O)C(=O)C(=O)Nc1cc(C)ccc1C` (stereo not drawn), the GI50 with M19-MEL, in the assay with HOP-18, in the assay on SNB-78, in the assay with KM-20L2, in the assay with DMS-114 and in the assay on RXF 631 was > 100 µM (inactive) in each case. In the assay with XF498, the GI50 was > 100 µM (inactive).
In the case of `CCOc1ccccc1N1C(=O)C(=O)C(c2nc3ccccc3o2)C(=O)C1=O`, the GI50 with M19-MEL was > 100 µM (inactive); in the assay with HOP-18, 28.7 µM (inactive); in the assay on SNB-78, > 100 µM (inactive); in the assay on KM-20L2 it was > 100 µM (inactive); in the assay with DMS-114 it was > 100 µM (inactive); in the assay with RXF 631 it was > 100 µM (inactive).
As to `O=C1c2ccccc2C(=O)c2cc3c(cc21)C[S+]([O-])C3`, the GI50 in the assay with M19-MEL, with HOP-18, in the assay with KM-20L2 and in the assay with DMS-114 was > 100 µM (inactive) throughout.
With `Clc1cc(Cl)cc(Nc2nc3ccccc3nc2-c2cccs2)c1`, the GI50 was 24.2 µM (inactive) with M19-MEL; 28.5 µM (inactive) with HOP-18; 62.5 µM (inactive) in the assay with SNB-78; > 10 µM (inactive) with KM-20L2; 15.8 µM (inactive) in the assay on RXF 631; 28.1 µM (inactive) in the assay on XF498.
For `C=CCC1=C2CCCCC2CCC1=O` (stereo not drawn), the GI50 in the assay with M19-MEL, with SNB-78, with DMS-114, in the assay with RXF 631 and in the assay with XF498 was > 100 µM (inactive) throughout.
On to `CN1N=C2c3ccccc3OC(c3ccccc3)[C@H]2C1c1ccccc1` (stereo partly drawn), for which the GI50 in the assay with M19-MEL is > 100 µM (inactive); with HOP-18, > 100 µM (inactive); in the assay on SNB-78, 26.4 µM (inactive); in the assay on KM-20L2, 51.2 µM (inactive); in the assay with DMS-114, 44.1 µM (inactive); in the assay on XF498, > 100 µM (inactive).
Consider `C=C(C)C1C/C=C(/C)CCCC2(CCC3=C(CC(C(=C)C)C/C=C(/C)CCC3)O2)C(=O)C1` (stereo not drawn), for which the GI50 with M19-MEL, with HOP-18, in the assay with SNB-78, in the assay on KM-20L2, in the assay on DMS-114 and in the assay on XF498 was > 100 µM (inactive) in each case.
As to `O=C(O)CN(c1ccccc1)S(=O)(=O)c1ccc([N+](=O)[O-])cc1`, the GI50 with M19-MEL, with HOP-18, in the assay with KM-20L2, with RXF 631 and with XF498 was > 100 µM (inactive) in each case.
